According to the supplement of paper PMC13380429:

Columns and labels:
Details in all cases: 72 h
Calu-3 [1] = test: relative viability EC50 (midpoint between 100% and the lowest measured viability); higher = less toxic
HepG2 [2] = test: as above
U2OS [3] = test: as above
Vero E6 [4] = test: as above
Calu-3 [5] = test: drug sensitivity score (DSS) for viability; higher = more toxic; extreme values may be limits of the assay
HepG2 [6] = test: as above
U2OS [7] = test: as above
Caco-2 [8] = test: as above
Vero E6 [9] = test: as above
Calu-3 [10] = test: cell viability relative to DMSO; higher = less toxic
HepG2 [11] = test: as above
U2OS [12] = test: as above
Caco-2 [13] = test: as above
Vero E6 [14] = test: as above
Caco-2 [15] = test: relative viability EC50 (midpoint between 100% and the lowest measured viability); higher = less toxic

SMILES	relative viability EC50 (Calu-3 [1]) [µM]	relative viability EC50 (HepG2 [2]) [µM]	relative viability EC50 (U2OS [3]) [µM]	relative viability EC50 (Vero E6 [4]) [µM]	drug sensitivity score (Calu-3 [5])	drug sensitivity score (HepG2 [6])	drug sensitivity score (U2OS [7])	drug sensitivity score (Caco-2 [8])	drug sensitivity score (Vero E6 [9])	cell viability (Calu-3 [10]; 1 nM) [%]	cell viability (Calu-3 [10]; 10 nM) [%]	cell viability (Calu-3 [10]; 100 nM) [%]	cell viability (Calu-3 [10]; 1000 nM) [%]	cell viability (Calu-3 [10]; 10000 nM) [%]	cell viability (HepG2 [11]; 1 nM) [%]	cell viability (HepG2 [11]; 10 nM) [%]	cell viability (HepG2 [11]; 100 nM) [%]	cell viability (HepG2 [11]; 1000 nM) [%]	cell viability (HepG2 [11]; 10000 nM) [%]	cell viability (U2OS [12]; 1 nM) [%]	cell viability (U2OS [12]; 10 nM) [%]	cell viability (U2OS [12]; 100 nM) [%]	cell viability (U2OS [12]; 1000 nM) [%]	cell viability (U2OS [12]; 10000 nM) [%]	cell viability (Caco-2 [13]; 1 nM) [%]	cell viability (Caco-2 [13]; 10 nM) [%]	cell viability (Caco-2 [13]; 100 nM) [%]	cell viability (Caco-2 [13]; 1000 nM) [%]	cell viability (Caco-2 [13]; 10000 nM) [%]	cell viability (Vero E6 [14]; 1 nM) [%]	cell viability (Vero E6 [14]; 10 nM) [%]	cell viability (Vero E6 [14]; 100 nM) [%]	cell viability (Vero E6 [14]; 1000 nM) [%]	cell viability (Vero E6 [14]; 10000 nM) [%]	relative viability EC50 (Caco-2 [15]) [µM]
CN(Cc1ccccc1)C(=O)[C@H](Cc1ccc2ccccc2c1)NC(=O)[C@@H]1C[C@@H](O)CN1C(=O)c1cn(C)c2ccccc12 [FK-888]	> 10	> 10	> 10	> 10	0.6	1.1	0	2.2	0	99.3	94	90.6	90.5	86.7	106	111	106	93	82.3	103	98.7	98.5	103	87.2	99.7	105	99.2	94.7	69.3	105	103	101	95.2	99	–
CCCC(=O)O[C@]1(C(=O)CCl)[C@@H](C)C[C@H]2[C@@H]3CCC4=CC(=O)C=C[C@]4(C)[C@@]3(F)C(=O)C[C@@]21C [clobetasone-butyrate]	> 10	> 10	> 10	> 10	0	0.3	0	1.7	0	96.1	112	97.3	100	89	96.2	104	97.9	90.3	88.5	93.1	96.1	91.8	95	87.9	94.7	103	94.1	94.3	74.6	108	102	109	98.5	93	–
CCCc1c(-c2ccc(O)cc2)nn(-c2ccc(O)cc2)c1-c1ccc(O)cc1 [PPT]	> 10	> 10	> 10	> 10	0	0	0	2.1	0	94.8	104	97.4	106	116	100	99.2	96	97	99.8	104	102	101	98.9	98.9	102	100	104	91	75	99.2	98.9	98.7	99.6	96	–
COc1cc2c(cc1Cc1cccc(Cl)c1F)c(=O)c(C(=O)O)cn2[C@H](CO)C(C)C [elvitegravir]	> 10	> 10	> 10	> 10	0.2	0	0.5	1.4	0	99.2	97.4	102	96.7	88.1	117	106	109	104	91	93.6	95.7	92.8	96.3	80.3	95.3	91.8	87.6	99.8	69.3	101	97.9	98	93.6	99.5	–
Cc1c[nH]c(=O)n(CCCN2CCN(c3ccccc3OCC(F)(F)F)CC2)c1=O	> 10	> 10	> 10	> 10	0.3	0	0	–	0	90.5	99	99.1	96.6	87.4	98.7	96.2	95.9	98.2	103	101	102	100	101	102	–	–	–	–	–	102	96.2	99.2	98.7	105	–
CN(C)CCOC(c1ccc(Cl)cc1)c1ccccn1 (stereo unspecified) [carbinoxamine]	> 10	> 10	–	> 10	0	0	–	0	0	108	110	101	97.4	103	99.9	95.8	102	104	99.6	–	–	–	–	–	110	98.7	97.2	99.5	95.3	94.5	102	99.4	106	106	> 10
CCC[C@@H](NC(=O)N1C(=O)C(CC)(CC)[C@@H]1Oc1ccc(C(=O)N2CCN(C)CC2)cc1)c1ccc2c(c1)OCO2 [DMP-777]	> 10	> 10	> 10	> 10	0	0	0.1	1.4	0	105	110	105	95.4	94.1	95.3	97.1	102	90.8	93	93.7	103	98.5	96.7	88	103	95	99.6	105	63.3	94.8	95.5	93.4	93.7	96.8	–
